Measurements reported in US20100056441A1, “Method for Inhibiting Angiogenesis” (priority 2006, published 2010).
Non-standard residues stand in square brackets, D forms with d. Residues, ends and D or L forms follow the SMILES beside them.

Experiments:
[1] = test system: mouse HCC cells; assay: Apoptosis in mouse liver tumors (H&E, TUNEL, activated caspase 3); type: in vivo; details: treated tumor-bearing mice
From the text: Furthermore, these apoptotic tumor cells were not apparent in FoxM1 deficient livers in dsRNA (CKO) Mx-Cre Foxm1−/− mice (FIG. 3E-3G).
(§1) To measure apoptosis in mouse livers we used the Terminal Deoxynucleotidyl Transferase-mediated dUTP-biotin Nick End Labeling (TUNEL) assay on liver sections using the ApoTag Fluorescein in situ apoptosis detection kit from Intergen (Purchase, N.Y.) according to the manufacturer's recommendations. The mean number (±SD) of TUNEL- or DAPI-positive hepatocyte nuclei was calculated per 1000 cells or 200× field by counting the number of positive hepatocyte nuclei using five different 200× fields of liver tumor sections from male mice at the indicated times of DEN/PB exposure.

[2] = test system: HCC cells of ARF -/- Rosa 26 FoxM1b TG mice; assay: Apoptosis of HCC in ARF -/- Rosa26 FoxM1b TG mice (H&E, TUNEL); type: in vivo, mouse
Method: In order to determine the effective concentration of dose of the ARF peptide for efficient liver delivery, mice were subjected to IP injection of either 0.1, 1, 5 or 10 mg/Kg body weight of TMR fluorescently tagged WT ARF 26-44 peptide, and were sacrificed 24 hours later, after which their livers were dissected, formalin fixed and paraffin embedded. Liver sections were treated with Xylene to remove paraffin wax and then examined by fluorescent microscopy for red peptide fluorescence. This dose response curve determined that IP injection of either equal or greater than 5 mg/Kg body weight of TMR-fluorescently labeled WT ARF 26-44 peptide was detectable in cytoplasm and nucleolus of hepatocytes and in hepatic mesenchymal cells at 24 hours after injection (FIG. 4G). […]
as §1, with “exposure. […]” for “exposure.”

[3] = biological target: T1, FoxM1b (Homo sapiens, UniProt Q08050); details: cited from earlier work
T1 sequence (Q08050 1-748 isoform Q08050-2): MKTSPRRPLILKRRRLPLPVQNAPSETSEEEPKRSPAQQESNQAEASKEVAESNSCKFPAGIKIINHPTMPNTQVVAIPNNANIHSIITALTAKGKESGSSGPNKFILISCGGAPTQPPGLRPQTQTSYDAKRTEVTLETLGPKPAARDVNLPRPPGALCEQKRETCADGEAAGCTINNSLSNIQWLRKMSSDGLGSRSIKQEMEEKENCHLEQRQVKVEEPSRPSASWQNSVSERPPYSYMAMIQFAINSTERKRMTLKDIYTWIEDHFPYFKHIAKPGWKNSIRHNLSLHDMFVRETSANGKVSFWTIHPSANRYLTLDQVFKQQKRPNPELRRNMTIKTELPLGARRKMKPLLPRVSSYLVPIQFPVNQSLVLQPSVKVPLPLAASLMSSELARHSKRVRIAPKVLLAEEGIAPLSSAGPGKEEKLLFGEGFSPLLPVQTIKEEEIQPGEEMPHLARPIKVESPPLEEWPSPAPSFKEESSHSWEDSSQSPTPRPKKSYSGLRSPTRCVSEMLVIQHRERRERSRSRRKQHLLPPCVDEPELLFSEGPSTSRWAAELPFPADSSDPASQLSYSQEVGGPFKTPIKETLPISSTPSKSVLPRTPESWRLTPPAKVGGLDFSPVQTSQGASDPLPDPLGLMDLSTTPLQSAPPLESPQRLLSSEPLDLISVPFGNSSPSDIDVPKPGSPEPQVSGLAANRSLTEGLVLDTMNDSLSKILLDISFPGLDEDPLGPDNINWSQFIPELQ

| Compound | activated caspase 3 staining in adjacent normal liver tissue [1] | red staining cells in surrounding normal liver tissue (H&E) [1] | TUNEL-positive cells in adjacent normal liver tissue [2] | inhibition of FoxM1B activity [3] |
| --- | --- | --- | --- | --- |
| CC(C)C[C@H](NC(=O)[C@H](C)NC(=O)[C@H](CS)NC(=O)[C@H](CO)NC(=O)[C@H](C)NC(=O)[C@@H](NC(=O)[C@H](CCCNC(=N)N)NC(=O)[C@@H]1CCCN1C(=O)[C@H](CCCNC(=N)N)NC(=O)[C@H](CCCNC(=N)N)NC(=O)[C@H](CO)NC(=O)[C@H](CCCNC(=N)N)NC(=O)[C@@H](NC(=O)[C@H](Cc1ccccc1)NC(=O)[C@H](CCCCN)NC(=O)[C@@H](CCCNC(=N)N)NC(=O)[C@@H](CCCNC(=N)N)NC(=O)[C@@H](CCCNC(=N)N)NC(=O)[C@@H](CCCNC(=N)N)NC(=O)[C@@H](CCCNC(=N)N)NC(=O)[C@@H](CCCNC(=N)N)NC(=O)[C@@H](CCCNC(=N)N)NC(=O)[C@@H](CCCNC(=N)N)NC(=O)[C@H](N)CCCNC(=N)N)C(C)C)[C@@H](C)O)C(=O)N[C@@H](C)C(=O)N[C@@H](Cc1ccccc1)C(=O)N[C@H](C(=O)N[C@@H](CC(N)=O)C(=O)O)C(C)C [WT ARF 26-44 peptide, rrrrrrrrrKFVRSRRPRTASCALAFVN] (H-[dR][dR][dR][dR][dR][dR][dR][dR][dR]KFVRSRRPRTASCALAFVN-OH; N-terminus and C-terminus assumed) | no pro-apoptotic staining in the adjacent normal liver tissue | neither in the surrounding normal liver tissue | not detected in adjacent normal liver tissue | – |
| KFVRSRRPRTASCALAFVN (listed as Homo sapiens) [p19ARF26-44 peptide, amino acids 26-44 of the p19ARF tumor suppressor protein] | – | – | – | sufficient in inhibiting FoxM1B activity |
